Experimental data taken from patent publication US12264134B2 (Merck Sharp & Dohme LLC, priority 2018, dated 2025).

Target: IDO1 (Homo sapiens, UniProt P14902)
Assay: IDO1 Cellular Assay in HeLa Cells Stimulated with IFNγ
Format: cell-based
Settings: read-out: HeLa Cell Potency, IC50
Experimental: IDO1 Cellular Assay in HeLa Cells Stimulated with IFNγ
HeLa cells were cultured in complete HeLa culture medium (90% EMEM, 10% heat-inactivated fetal bovine serum) and expanded to about 1×10^9 cells. The cells were then collected and frozen down at 1×10^7 cells/vial in 1 mL frozen medium (90% complete HeLa culture medium, 10% DMSO).
Compounds to be tested were serially diluted in ten 3-fold steps in DMSO starting from 10 mM DMSO stocks in Echo low volume plate(s). Compound dilutions or DMSO alone were then dispensed from the dilution plate(s) into Greiner black 384-well assay plate(s) (catalog #781086, 50 nL/well) using an Echo 550 acoustic liquid handler (Labcyte).
Frozen HeLa cells were thawed and transferred into HeLa assay medium (99% complete HeLa culture medium, 1% Pen/Strep) with 20 mL medium/vial of cells. The cells were spun down at 250 g in a table top centrifuge for 5 min and suspended in same volume of HeLa assay medium. The cells were then counted and adjusted to a density of 2×10^5 cells/mL in HeLa assay medium. Sterile L-tryptophan were added to the cells with final concentration of 300 uM L-tryptophan. A small aliquot (2 mL/plate) of HeLa cells were set aside and were not treated with IFNγ, to serve as the Max-E control.
HeLa cells with and without IFNγ were dispensed to the respective wells of 384-well assay plates containing the compounds. The plates were incubated for about 48 hours at a 37° C., 5% CO2 incubator. Afterwards, 12 μL of 0.5 M methyl isonipecotate in dimethyl sulfoxide were added into each well and the plates were sealed and incubated at 37° C. without CO2 overnight. The plates were centrifuged for 1 min at 200×g. The resulting fluorescence was measured in a Spectramax plate reader (Molecular Devices) with a 400 nm excitation filter and a 510 nm emission filter.
The fluorescence intensity of each well was corrected for the background observed in wells with non-IFNγ-treated cells and was expressed as a fraction of the intensity observed in wells of IFNγ-treated cells and DMSO only. Potencies were calculated by linear least squares fit to the four parameter logistic IC50 equation.

Sequence of IDO1 (P14902 whole entry): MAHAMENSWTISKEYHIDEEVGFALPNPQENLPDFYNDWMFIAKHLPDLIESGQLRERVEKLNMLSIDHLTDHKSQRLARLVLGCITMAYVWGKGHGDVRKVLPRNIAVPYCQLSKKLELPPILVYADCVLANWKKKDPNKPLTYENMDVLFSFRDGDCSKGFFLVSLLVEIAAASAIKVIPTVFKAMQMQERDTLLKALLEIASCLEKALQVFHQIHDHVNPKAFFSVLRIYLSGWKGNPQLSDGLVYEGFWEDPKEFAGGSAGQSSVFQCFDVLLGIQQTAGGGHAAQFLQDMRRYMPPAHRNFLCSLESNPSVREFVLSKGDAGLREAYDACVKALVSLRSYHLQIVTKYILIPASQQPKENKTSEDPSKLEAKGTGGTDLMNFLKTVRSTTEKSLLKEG

Molecule | IC50
1-(2-(difluoromethyl)-4-(2,3-dimethylphenyl)piperazin-1-yl)-2-((3bR,4aR)-3-(4-hydroxypiperidine-1-carbonyl)-3b,4,4a,5-tetrahydro-1H-cyclopropa[3,4]cyclopenta[1,2-c]pyrazol-1-yl)ethanone [Example 387] | 205 nM
Cc1cccc(N2CCN(C(=O)Cn3nc(C(=O)N4CC[C@@H](O)[C@@H](F)C4)c4c3CC(F)C4)CC2)c1C (mixture of isomers) [Example 417, 1-(4-(2,3-dimethylphenyl)piperazin-1-yl)-2-(5-fluoro-3-((3S,4R)-3-fluoro-4-hydroxypiperidine-1-carbonyl)-5,6-dihydrocyclopenta[c]pyrazol-1(4H)-yl)ethan-1-one] | 27 nM
O=C(Cn1nc(C(=O)N2CC[C@H](O)[C@H](F)C2)c2c1CCC2)N1CCN(C2CCc3ccccc32)CC1 (mixture of isomers) [Example 438, 1-(4-(2,3-dihydro-1H-inden-1-yl)piperazin-1-yl)-2-(3-((3R,4S)-3-fluoro-4-hydroxypiperidine-1-carbonyl)-5,6-dihydrocyclopenta[c]pyrazol-1(4H)-yl)ethanone] | 1590 nM
Cc1cccc(N2CCN(C(=O)Cn3nc(C(=O)N4CC[C@H](O)[C@H](F)C4)c4c3C[C@H]3C[C@@H]43)[C@H]3CCC[C@@H]32)c1C (racemic) [Example 327, 1-[rac-(4aS,7aS or 4aR,7aR)-1-(2,3-dimethylphenyl)-3,4a,5,6,7,7a-hexahydro-2H-cyclopenta[b]pyrazin-4-yl]-2-[(2R,4R)-9-[(3R,4S)-3-fluoro-4-hydroxy-piperidine-1-carbonyl]-7,8-diazatricyclo[4.3.0.02,4]nona-1(6),8-dien-7-yl]ethanone] | 17.1 nM
Cc1cccc(N2CCN(C(=O)Cn3nc(C(=O)N4CC[C@H](O)[C@@H](F)C4)c4c3CC(O)C4)CC2)c1C (mixture of isomers) [Example 414, 1-(4-(2,3-dimethylphenyl)piperazin-1-yl)-2-(3-((3 S,4S)-3-fluoro-4-hydroxypiperidine-1-carbonyl)-5-hydroxy-5,6-dihydrocyclopenta[c]pyrazol-1 (4H)-yl)ethanone] | 381 nM
Cc1cccc(N2CCN(C(=O)Cn3nc(C(=O)N4CCC(OCCO)CC4)c4c3CCC4C(F)F)CC2)c1C (single isomer, unassigned) [Example 13, 2-[4-(difluoromethyl)-3-[4-(2-hydroxyethoxy)piperidine-1-carbonyl]-5,6-dihydro-4H-cyclopenta[c]pyrazol-1-yl]-1-[4-(2,3-dimethylphenyl)piperazin-1-yl]ethanone] | 31 nM
Cc1cccc(N2CCN(C(=O)Cn3nc(C(=O)N4CCC(O)CC4)c4c3C[C@H]3C[C@@H]43)C(C(F)F)C2)c1C (single isomer, unassigned) [Example 386] | 14 nM
Cc1cccc(N2CCN(C(=O)Cn3nc(C(=O)N4CC[C@H](O)[C@@H](F)C4)c4c3CC(O)C4)CC2)c1C (single isomer, unassigned) [Example 415] | 341 nM

More lines, in order of falling IC50, values ahead:

IC50 | Molecule
692 nM | Cc1cccc(N2CCN(C(=O)Cn3nc(C(=O)N4CC[C@@H](O)[C@@H](F)C4)c4c3C(O)CC4)CC2)c1C (mixture of isomers) [Example 421, 1-(4-(2,3-dimethylphenyl)piperazin-1-yl)-2-(3-((3S,4R)-3-fluoro-4-hydroxypiperidine-1-carbonyl)-6-hydroxy-5,6-dihydrocyclopenta[c]pyrazol-1(4H)-yl)ethanone]
496 nM | Cc1cccc(N2CCN(C(=O)Cn3nc(C(=O)N4CC[C@H](O)[C@H](F)C4)c4c3C(O)CCC4)CC2)c1C (single isomer, unassigned) [Example 25]
113 nM | Cc1cccc(N2CCN(C(=O)Cn3nc(C(=O)N4CC[C@H](O)[C@H](F)C4)c4c3CCC4C(F)F)CC2)c1C (mixture of isomers) [Example 19, 2-[rac-4-(difluoromethyl)-3-[(3R,4S)-3-fluoro-4-hydroxy-piperidine-1-carbonyl]-5,6-dihydro-4H-cyclopenta[c]pyrazol-1-yl]-1-[4-(2,3-dimethylphenyl)piperazin-1-yl]ethanone]
92.4 nM | Cc1cccc(N2CCN(C(=O)Cn3nc(C(=O)N4CCC(O)CC4)c4c3CCC4C(F)F)CC2)c1C (racemic) [Example 18, 2-[rac-4-(difluoromethyl)-3-(4-hydroxypiperidine-1-carbonyl)-5,6-dihydro-4H-cyclopenta[c]pyrazol-1-yl]-1-[4-(2,3-dimethylphenyl)piperazin-1-yl]ethanone]
90.9 nM | Cc1cccc(N2CCN(C(=O)Cn3nc(C(=O)N4CCC(F)(F)[C@@H](O)C4)c4c3CCC4)CC2)c1C (single isomer, unassigned) [Example 213, 2-[3-[(3S or 3R)-4,4-difluoro-3-hydroxy-piperidine-1-carbonyl]-5,6-dihydro-4H-cyclopenta[c]pyrazol-1-yl]-1-[4-(2,3-dimethylphenyl)piperazin-1-yl]ethanone]
63.5 nM | Cc1cccc(N2CCN(C(=O)Cn3nc(C(=O)N4CCC(F)(F)[C@H](O)C4)c4c3CCC4)CC2)c1C (single isomer, unassigned) [Example 210, 2-[3-[(3R or 3S)-4,4-difluoro-3-hydroxy-piperidine-1-carbonyl]-5,6-dihydro-4H-cyclopenta[c]pyrazol-1-yl]-1-[4-(2,3-dimethylphenyl)piperazin-1-yl]ethanone]
43.8 nM | Cc1cccc(N2CCN(C(=O)Cn3nc(C(=O)N4CC[C@H](O)[C@H](F)C4)c4c3CCC4C(F)F)CC2)c1C (single isomer, unassigned) [Example 14]
36.8 nM | Cc1cccc(N2CCN(C(=O)Cn3nc(C(=O)N4CC[C@H](N)C(F)(F)C4)c4c3CCC4)CC2)c1C (single isomer, unassigned) [Example 209, [(4S or 4R)-1-[1-[2-[4-(2,3-dimethylphenyl)piperazin-1-yl]-2-oxo-ethyl]-5,6-dihydro-4H-cyclopenta[c]pyrazole-3-carbonyl]-3,3-difluoro-4-piperidyl]ammonium;2,2,2-trifluoroactate]
30.9 nM | Cc1cccc(N2CCN(C(=O)Cn3nc(C(=O)N4CC[C@H](F)[C@@H](O)C4)c4c3CCC4)CC2)c1C (racemic) [Example 208, 1-[4-(2,3-dimethylphenyl)piperazin-1-yl]-2-[3-[rac-(3S,4S)-4-fluoro-3-hydroxy-piperidine-1-carbony]-5,6-dihydro-4H-cyclopenta[c]pyrazol-1-yl]ethanone]
27.9 nM | Cc1cccc(N2CCN(C(=O)Cn3nc(C(=O)N4CC[C@@H](N)C(F)(F)C4)c4c3CCC4)CC2)c1C (single isomer, unassigned) [Example 206, [(4R or 4S)-1-[1-[2-[4-(2,3-dimethylphenyl)piperazin-1-yl]-2-oxo-ethyl]-5,6-dihydro-4H-cyclopenta[c]pyrazole-3-carbonyl]-3,3-difluoro-4-piperidyl]ammonium;2,2,2-trifluoroacetate]
19.9 nM | Cc1cccc(N2CCN(C(=O)Cn3nc(C(=O)N4CCC(O)CC4)c4c3CCC4C(F)F)CC2)c1C (single isomer, unassigned) [Example 15, 2-[4-(difluoromethyl)-3-(4-hydroxypiperidine-1-carbonyl)-5,6-dihydro-4H-cyclopenta[c]pyrazol-1-yl]-1-[4-(2,3-dimethylphenyl)piperazin-1-yl]ethanone]
13.2 nM | Cc1cccc(N2CCN(C(=O)Cn3nc(C(=O)N4CC[C@H](O)[C@H](F)C4)c4c3CC(C(F)F)C4)CC2)c1C (single isomer, unassigned) [Example 12]
